Counter-ions that a name gives are not always drawn.
Biological target: HDAC-1 (Homo sapiens, UniProt Q13547)
Experiment: Inhibition of HDAC in vitro (fluorogenic acetyl-Gly-Ala-(N-acetyl-Lys)-AMC / trypsin assay)
Type: biochemical
Details: HDAC-1 200 pM, 30 min preincubation, pH 7.4; inhibition constants obtained with BatchKi
Experimental: The HDAC inhibitory activity of the compounds of this invention in vitro was determined as follows.
Measurements were performed in a reaction volume of 100 μL using 96-well assay plates. HDAC-1 (200 pM final concentration) in reaction buffer (50 mM HEPES, 100 mM KCl, 0.001% Tween-20, 5% DMSO, pH 7.4) was mixed with inhibitor at various concentrations and allowed to incubate for 30 min, after which trypsin and acetyl-Gly-Ala-(N-acetyl-Lys)-AMC were added to final concentrations of 50 nM and 25 μM, respectively, to initiate the reaction. Negative control reactions were performed in the absence of inhibitor in replicates of eight.
The reactions were monitored in a fluorescence plate reader. After a 30 min lag time, the fluorescence was measured over a 30 min time frame using an excitation wavelength of 355 nm and a detection wavelength of 460 nm. The increase in fluorescence with time was used as the measure of the reaction rate. Inhibition constants were obtained using the program BatchKi (Kuzmic et al. Anal. Biochem. 286, 45-50, (2000)).

Sequence of HDAC-1 (Q13547 whole entry, species assumed): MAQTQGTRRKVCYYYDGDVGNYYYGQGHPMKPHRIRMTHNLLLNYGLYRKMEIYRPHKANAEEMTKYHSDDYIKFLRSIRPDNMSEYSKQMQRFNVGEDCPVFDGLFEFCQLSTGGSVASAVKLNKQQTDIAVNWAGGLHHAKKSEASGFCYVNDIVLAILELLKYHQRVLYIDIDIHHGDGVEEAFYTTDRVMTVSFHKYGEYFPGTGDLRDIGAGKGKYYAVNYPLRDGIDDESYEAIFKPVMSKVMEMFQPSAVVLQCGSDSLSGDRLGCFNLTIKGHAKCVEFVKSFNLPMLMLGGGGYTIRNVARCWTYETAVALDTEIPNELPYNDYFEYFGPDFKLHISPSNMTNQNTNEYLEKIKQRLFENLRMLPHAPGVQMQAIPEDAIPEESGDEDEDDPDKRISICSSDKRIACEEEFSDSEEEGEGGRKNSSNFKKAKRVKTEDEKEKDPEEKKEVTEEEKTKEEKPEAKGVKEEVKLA

- Ki: 22 nM
Compound: CN(C)Cc1c(C(=O)NCC#Cc2ccc(C(=O)NO)cc2)oc2ccccc12 [Compound 22, Table I, N-hydroxy-4-[3-(3-N,N-dimethylaminomethylbenzofiuran-2-ylcarbonylamino)prop-1-ynyl]-benzamide hydrochloride]

Reference: patent publication US7368572B2, “Acetylene derivatives as inhibitors of histone deacetylase” (Pharmacyclics, Inc., priority 2003, dated 2008)
